Here are results for ten compounds from ChEMBL document CHEMBL1201862, “PubChem BioAssay data set” (2004).

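Interpolation was linear, between the two tested concentrations surrounding the appropriate level; five concentrations were tested over 48 hours in 96-well plates. The concentration for 50% growth inhibition is given as GI50.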 Activity calls are given as the source filed them. Rule as the data show it: active = GI50 up to about 1.1 µM and inactive = higher.

Among the test systems are CAKI-1; NCI/ADR-RES; SNB-19; HCT-15; OVCAR-5; LOX IMVI; CCRF-CEM; BT-549; RPMI-8226; SF-268; UACC-62; 786-0; MCF7; K562; MOLT-4; EKVX; MDA-N; SK-MEL-2; U-251.
Common to all, as to test: DTP human tumour cell line panel, 48 h

`Oc1ccccc1/C=N/Nc1nnc2c3ccccc3c3ccccc3c2n1`: the GI50 with CAKI-1 was > 100 µM (inactive); with NCI/ADR-RES it was 47.9 µM (inactive); with SNB-19 it was > 100 µM (inactive); in the experiment with HCT-15, 73.6 µM; in the experiment on OVCAR-5, > 100 µM (inactive); with LOX IMVI, 84.3 µM (inactive). The GI50 in the experiment with CCRF-CEM is > 100 µM (inactive); with BT-549, > 100 µM (inactive); with RPMI-8226, > 100 µM (inactive); in the experiment on SF-268, > 100 µM (inactive); with UACC-62 it was 61.4 µM (inactive); in the experiment on 786-0 it was > 100 µM (inactive). Further, the GI50 in the experiment on MCF7 was 32.3 µM (inactive); in the experiment with K562 it was > 100 µM (inactive); in the experiment on MOLT-4 it was > 100 µM (inactive); with EKVX, > 100 µM (inactive); with MDA-N, 29.9 µM (inactive); in the experiment with SK-MEL-2, 55.5 µM (inactive). Further, the GI50 with U-251 was > 100 µM (inactive).

`C#CCn1c(=O)ccn(/C(=C\C(=O)OCC)C(=O)OCC)c1=O`: the GI50 is 1.03 µM (active) in the experiment with CAKI-1; 7.64 µM (inactive) with NCI/ADR-RES; 19.9 µM (inactive) in the experiment with SNB-19; 1.51 µM in the experiment with HCT-15; 13.5 µM (inactive) in the experiment on OVCAR-5; 12.2 µM (inactive) with LOX IMVI. Also, the 50% growth inhibitory concentration (GI50) is 0.381 µM (active) with CCRF-CEM; 12.4 µM (inactive) in the experiment on BT-549; 2.73 µM (inactive) in the experiment with RPMI-8226; 19.9 µM (inactive) in the experiment on SF-268; 14.2 µM (inactive) with UACC-62; 2.3 µM (inactive) in the experiment on 786-0. The GI50 in the experiment on MCF7 is 2.87 µM (inactive); in the experiment with K562 it was 3.54 µM (inactive); with MOLT-4, 2.56 µM (inactive); in the experiment with EKVX it was 6.28 µM (inactive); in the experiment with MDA-N, 15.8 µM (inactive); in the experiment with SK-MEL-2, 16.4 µM (inactive). The GI50 in the experiment with U-251 was 14.3 µM (inactive).

For the compound `Cc1ccc(S(=O)(=O)N/N=C2\CCC3(O)CC2(C)CCC2C3CC2(C)C)cc1` (stereo not given), the GI50 is 37.2 µM (inactive) with CAKI-1; 33.7 µM (inactive) in the experiment with NCI/ADR-RES; 56.6 µM (inactive) in the experiment on SNB-19; 36.2 µM in the experiment with HCT-15; 50.6 µM (inactive) with OVCAR-5; 32.1 µM (inactive) with LOX IMVI. Moreover, the GI50 is > 100 µM (inactive) in the experiment with CCRF-CEM; 65.3 µM (inactive) with BT-549; > 100 µM (inactive) in the experiment on RPMI-8226; 37.4 µM (inactive) in the experiment with SF-268; 36.6 µM (inactive) in the experiment on UACC-62; 45.3 µM (inactive) in the experiment on 786-0. In addition, the GI50 in the experiment on MCF7 is 39.6 µM (inactive); with K562, > 100 µM (inactive); with MOLT-4, 85.9 µM (inactive); with EKVX, 40.1 µM (inactive); in the experiment on MDA-N, 38.5 µM (inactive); in the experiment on SK-MEL-2, 18.7 µM (inactive). Moreover, the GI50 in the experiment with U-251 was 42.7 µM (inactive).

On to `CCc1cccc(C(C)(C)C)c1NC(=S)N/C=C(/C#N)C(N)=O`, for which the GI50 is > 100 µM (inactive) in the experiment on CAKI-1; > 100 µM (inactive) in the experiment with NCI/ADR-RES; > 100 µM (inactive) with SNB-19; 62.4 µM in the experiment on HCT-15; > 100 µM (inactive) in the experiment on OVCAR-5; > 100 µM (inactive) in the experiment with LOX IMVI. Moreover, the GI50 in the experiment with CCRF-CEM is > 100 µM (inactive); in the experiment on BT-549, 44.8 µM (inactive); with RPMI-8226, > 100 µM (inactive); with SF-268, > 100 µM (inactive); in the experiment with UACC-62, > 100 µM (inactive); in the experiment with 786-0, > 100 µM (inactive). Moreover, the GI50 in the experiment on MCF7, in the experiment on K562, with MOLT-4, in the experiment with EKVX, in the experiment on MDA-N and with SK-MEL-2 was > 100 µM (inactive) throughout. Further, in the experiment on U-251, the GI50 was > 100 µM (inactive).

For the compound `O=C1C=CC(=O)c2c1ccc1c3ccccc3n(CCCCCCCCCCCCn3c4ccccc4c4ccc5c(c43)C(=O)C=CC5=O)c21`, the GI50 in the experiment on CAKI-1 is > 100 µM (inactive); with NCI/ADR-RES it was > 100 µM (inactive); in the experiment with SNB-19, > 100 µM (inactive); with HCT-15 it was > 100 µM; in the experiment on OVCAR-5 it was > 100 µM (inactive); in the experiment on LOX IMVI, > 100 µM (inactive). Further, the GI50 in the experiment with CCRF-CEM is 26.3 µM (inactive); in the experiment on BT-549 it was > 100 µM (inactive); in the experiment with RPMI-8226, > 100 µM (inactive); in the experiment with SF-268, > 100 µM (inactive); with UACC-62, > 100 µM (inactive); in the experiment with 786-0 it was > 65.8 µM (inactive). The GI50 in the experiment with MCF7 is > 100 µM (inactive); in the experiment on K562 it was > 72.4 µM (inactive); in the experiment with MOLT-4, 49.9 µM (inactive); in the experiment with EKVX, > 100 µM (inactive); with MDA-N it was > 100 µM (inactive); in the experiment with SK-MEL-2, > 100 µM (inactive). Also, the GI50 in the experiment on U-251 was > 88.7 µM (inactive).

With `CC(=O)c1c2c(c3ccccc3c1O)O[C@@H]1OCC[C@H]21`, the GI50 with CAKI-1 was > 100 µM (inactive); in the experiment on NCI/ADR-RES, > 100 µM (inactive); in the experiment on SNB-19, > 100 µM (inactive); in the experiment with HCT-15 it was > 100 µM; in the experiment with OVCAR-5 it was > 100 µM (inactive); in the experiment with LOX IMVI, > 100 µM (inactive). Moreover, the GI50 in the experiment on CCRF-CEM is > 100 µM (inactive); in the experiment with BT-549 it was 48.4 µM (inactive); in the experiment with RPMI-8226, 94.6 µM (inactive); in the experiment with SF-268, > 100 µM (inactive); in the experiment on UACC-62, > 100 µM (inactive); with 786-0, > 100 µM (inactive). The GI50 was 30 µM (inactive) in the experiment with MCF7; > 100 µM (inactive) with K562; > 100 µM (inactive) in the experiment with MOLT-4; > 100 µM (inactive) in the experiment with EKVX; > 100 µM (inactive) with MDA-N; > 100 µM (inactive) in the experiment on SK-MEL-2. The GI50 in the experiment on U-251 is > 100 µM (inactive).

Turning to `Cc1cc(C(C)(C)C)c(OCCCN2CCOCC2)c(C(C)(C)C)c1`, the GI50 in the experiment on CAKI-1 is 19.1 µM (inactive); in the experiment with NCI/ADR-RES, 17 µM (inactive); with SNB-19, 17.3 µM (inactive); in the experiment with HCT-15, 18 µM; in the experiment with OVCAR-5, 17.9 µM (inactive); with LOX IMVI, 20.6 µM (inactive). The GI50 with CCRF-CEM was 16.6 µM (inactive); in the experiment with BT-549, 17.5 µM (inactive); in the experiment with RPMI-8226, 14.1 µM (inactive); in the experiment with SF-268, 18.7 µM (inactive); with UACC-62, 16 µM (inactive); in the experiment with 786-0, 17.3 µM (inactive). The GI50 was 18.6 µM (inactive) with MCF7; 16.6 µM (inactive) with K562; 17.1 µM (inactive) with MOLT-4; 17.9 µM (inactive) in the experiment on EKVX; 18.1 µM (inactive) in the experiment with MDA-N; 16.5 µM (inactive) in the experiment with SK-MEL-2. The GI50 in the experiment with U-251 was 18 µM (inactive).

On to `CC1OC(OC2C(O[C@H]3CC[C@@]4(C)C(=CC[C@H]5[C@@H]6C[C@@H]7O[C@]8(CC[C@@H](C)CO8)[C@@H](C)[C@@H]7[C@@]6(C)CC[C@@H]54)C3)OC(CO)C(O)C2O)C(O)C(O)C1O` (stereo not given in full), for which the GI50 is 1.7 µM (inactive) with CAKI-1; 1.99 µM (inactive) in the experiment with NCI/ADR-RES; 1.01 µM (active) with SNB-19; 1.96 µM with HCT-15; 2.93 µM (inactive) in the experiment on OVCAR-5; 0.805 µM (active) in the experiment on LOX IMVI. The concentration for 50% growth inhibition (GI50) with CCRF-CEM was 0.507 µM (active); with BT-549, 4.49 µM (inactive); in the experiment on RPMI-8226, 0.698 µM (active); in the experiment with SF-268, 2.44 µM (inactive); with UACC-62 it was 1.4 µM (inactive); with 786-0 it was 1.14 µM (inactive). Further, the GI50 was 1.82 µM (inactive) in the experiment with MCF7; 1.57 µM (inactive) with K562; 2.64 µM (inactive) in the experiment with MOLT-4; 3.1 µM (inactive) in the experiment on EKVX; 3.29 µM (inactive) with MDA-N; 2.63 µM (inactive) in the experiment with SK-MEL-2. The GI50 in the experiment with U-251 is 0.544 µM (active).

Regarding `CN(O)C(=O)Cc1ccc(OCc2cccc(Cl)c2)cc1`, the GI50 with CAKI-1 was > 100 µM (inactive); with NCI/ADR-RES, > 100 µM (inactive); with SNB-19, > 100 µM (inactive); with HCT-15, > 100 µM; in the experiment with OVCAR-5, > 100 µM (inactive); in the experiment with LOX IMVI it was > 100 µM (inactive). Also, the GI50 in the experiment on CCRF-CEM, in the experiment with BT-549, with RPMI-8226, in the experiment on SF-268, with UACC-62 and with 786-0 was > 100 µM (inactive) in each case. The GI50 with MCF7, in the experiment on K562, in the experiment on MOLT-4, in the experiment with EKVX, with MDA-N and in the experiment on SK-MEL-2 was > 100 µM (inactive) each time. Moreover, in the experiment on U-251, the GI50 was > 100 µM (inactive).

For `FC(F)(F)c1ccc(C2ON=C(c3ccccc3)N2C23CC4CC(CC(C4)C2)C3)cc1` (stereo not given), the GI50 in the experiment with CAKI-1 is > 10 µM (inactive); with NCI/ADR-RES, > 10 µM (inactive); in the experiment on SNB-19, > 10 µM (inactive); in the experiment on HCT-15, > 10 µM; in the experiment with OVCAR-5 it was > 10 µM (inactive); in the experiment with LOX IMVI it was > 10 µM (inactive). Also, the GI50 in the experiment with CCRF-CEM, with BT-549, in the experiment with RPMI-8226, with SF-268, in the experiment with UACC-62 and with 786-0 was > 10 µM (inactive) throughout. Besides, the GI50 in the experiment on MCF7 was 1.39 µM (inactive); in the experiment on K562, > 10 µM (inactive); in the experiment with MOLT-4, > 10 µM (inactive); in the experiment with EKVX it was > 10 µM (inactive); with MDA-N, > 10 µM (inactive); in the experiment on SK-MEL-2 it was > 10 µM (inactive). Besides, the GI50 in the experiment on U-251 was > 10 µM (inactive).

In general, GI50 refers to the concentration that inhibits growth by half.
